Measurements from US6846953B1, “Aromatic amides” (Warner Lambert Company, priority 1999, dated 2005).

Assays:
[1] = tested on: Carrageenin induced thermal hyperalgesia in the rat; assay: Carrageenin induced hyperalgesia, rat paw pressure test; type: in vivo; conditions: po, 30 mg/kg p.o., 2 h post dose, MPE = maximum possible effect, baseline value prior to carrageenin
Description: (§1) In another test, compounds were evaluated for their ability to reduce the hyperalgesia effects of carrageenin in the following assay: nociceptive pressure thresholds were measured in the rat paw pressure test using an analgesimeter (Randall L. O. and Selitto J. J., A method for measurement of analgesic activity on inflamed tissue. Arch. Int. Pharmacodyn 4: 409-419, 1957). Male Sprague-Dawley rats (70-90 g) were trained on this apparatus before the test day. Pressure was gradually applied to the hind paw of each rat Nociceptive thresholds were determined as the pressure (g) required to elicit paw withdrawal. A cutoff point of 250 g was used to prevent any tissue damage to the paw. On the test day, 2 to 3 baseline measurements were taken before animals were administered 100 μl of 2% aqueous carrageenin by intraplantar injection into the right hind paw. […]

[2] = tested on: Carrageenin induced hyperalgesia in the rat; assay: as above; type: in vivo; conditions: po, 30 mg/kg p.o., 1 h post dose, MPE = maximum possible effect, baseline value prior to carrageenin
Description: as §1

| SMILES | inhibition in vivo at 30 mg/kg [1] [%] | inhibition in vivo at 30 mg/kg [2] [%] |
| --- | --- | --- |
| CCC(=O)N(CCN(CC)CC)c1ccc(Cl)c2ccccc12 [Example 1, N-Propionyl, N-(2-Diethylaminoethyl)-1-amino-4-chloronaphthalene] | 22.2 | 51.5 |
| CCC(=O)N(CCN(CC)CC)c1cccc2c1-c1ccccc1C2=O [Example 2, N-Propionyl, N-(2-Diethylaminoethyl)-4-amino-9-fluorenone] | 6.4 | 1.1 |
| CCC(=O)N(CCN(CC)CC)c1ccc(Br)c2ccccc12 [Example 3, N-Propionyl, N-(2-Diethylaminoethyl)-1-amino-4-bromonaphthalene] | 7.7 | -2.6 |
| CCC(=O)N(CCN1CCOCC1)c1ccc(Cl)c2ccccc12 [Example 4] | 30.7 | 44.8 |
| CCC(=O)N(c1ccc(Cl)c2ccccc12)C(C)CN(CC)CC (centres unmarked) [Example 5, N-Propionyl, N-(2-(3-diethylamino-propyl))-1-amino-4-chloronaphthalene] | 27.5 | 23.3 |
| CCC(=O)N(CCNCc1ccccc1)c1cccc2ccccc12 [Example 12, N-Propionyl, N-(2-(N-benzyl)-aminoethyl)-1-aminonaphthalene] | 3.13 | 29.7 |
| C=CC(=O)N(CCN(CC)CC)c1ccc(Cl)c2ccccc12 [Example 14, N-Acryloyl, N-(2-Diethylaminoethyl)-1-amino-4-chloronaphthalene] | 0.9 | 15.1 |
